{
  "source": "ChEMBL document CHEMBL4823287",
  "about": "“Design and synthesis of novel 5-alkynyl pyrimidine nucleosides derivatives: Influence of C-6-substituent on antituberculosis activity” (2021)",
  "key": {"[1]": {"tested_on": "Mycobacterium tuberculosis", "test": "Antimycobacterial activity against Mycobacterium bovis BCG assessed as inhibition of bacterial growth at 50 ug/ml measured by microplate alamar blue assay", "type": "functional", "settings": "variant bovis BCG"}, "[2]": {"tested_on": "Mycobacterium tuberculosis", "test": "Antimycobacterial activity against Mycobacterium bovis BCG assessed as inhibition of bacterial growth at 1 to 5 ug/ml measured by microplate alamar blue assay", "type": "functional, variant bovis BCG", "settings": "dose 1-5 µg/ml; at 1 to 5 µg/mL"}, "[3]": {"tested_on": "Mycobacterium tuberculosis", "test": "Antimycobacterial activity against Mycobacterium bovis BCG assessed as inhibition of bacterial growth at 25 ug/ml measured by microplate alamar blue assay", "type": "functional", "settings": "variant bovis BCG"}, "[4]": {"tested_on": "Mycobacterium tuberculosis", "test": "Antimycobacterial activity against Mycobacterium bovis BCG assessed as inhibition of bacterial growth at measured by microplate alamar blue assay", "type": "functional", "settings": "variant bovis BCG"}, "[5]": {"tested_on": "Mycobacterium tuberculosis", "test": "Antimycobacterial activity against Mycobacterium bovis BCG assessed as inhibition of bacterial growth at 1 ug/ml measured by microplate alamar blue assay", "type": "functional", "settings": "variant bovis BCG"}, "[6]": {"tested_on": "Mycobacterium tuberculosis", "test": "Antimycobacterial activity against Mycobacterium bovis BCG assessed as inhibition of bacterial growth at 100 ug/ml measured by microplate alamar blue assay", "type": "functional", "settings": "variant bovis BCG"}, "[7]": {"tested_on": "Mycobacterium tuberculosis", "test": "Antimycobacterial activity against Mycobacterium bovis BCG assessed as inhibition of bacterial growth at 10 ug/ml measured by microplate alamar blue assay", "type": "functional", "settings": "variant bovis BCG"}, "[8]": {"tested_on": "Mycobacterium tuberculosis", "test": "Antimycobacterial activity against Mycobacterium bovis BCG assessed as inhibition of bacterial growth at 5 ug/ml measured by microplate alamar blue assay", "type": "functional", "settings": "variant bovis BCG"}},
  "data": [
    {"compound": "CCCCC#Cc1c(C)n([C@@H]2O[C@H](CO)[C@@H](O)[C@H]2O)c(=O)[nH]c1=O", "values": [
      {"measurement": "inhibition at 50 µg/mL", "setting": "[1]", "result": 100, "unit": "%"},
      {"measurement": "inhibition (INH)", "setting": "[2]", "result": 10, "unit": "%"},
      {"measurement": "inhibition at 25 µg/mL", "setting": "[3]", "result": 60, "unit": "%"},
      {"measurement": "MIC50", "setting": "[4]", "result": 18.6, "unit": "µg/mL"}
    ]},
    {"compound": "Cc1c(C#CC(O)c2ccccc2)c(=O)[nH]c(=O)n1[C@@H]1O[C@H](CO)[C@@H](O)[C@H]1O", "note": "(stereo partly specified)", "values": [
      {"measurement": "inhibition at 1 µg/mL", "setting": "[5]", "result": 100, "unit": "%"},
      {"measurement": "MIC50", "setting": "[4]", "result": 0.7, "unit": "µg/mL"}
    ]},
    {"compound": "CC#Cc1c(C)n([C@@H]2O[C@H](CO)[C@@H](O)[C@H]2O)c(=O)[nH]c1=O", "values": [
      {"measurement": "inhibition at 100 µg/mL", "setting": "[6]", "result": 90, "unit": "%"},
      {"measurement": "inhibition at 50 µg/mL", "setting": "[1]", "result": 50, "unit": "%"},
      {"measurement": "inhibition at 10 µg/mL", "setting": "[7]", "result": 0, "unit": "%"},
      {"measurement": "MIC50", "setting": "[4]", "result": 50, "unit": "µg/mL"}
    ]},
    {"compound": "CCCCCCC#Cc1c(C)n([C@@H]2O[C@H](CO)[C@@H](O)[C@H]2O)c(=O)[nH]c1=O", "values": [
      {"measurement": "inhibition at 100 µg/mL", "setting": "[6]", "result": 90, "unit": "%"},
      {"measurement": "inhibition at 50 µg/mL", "setting": "[1]", "result": 60, "unit": "%"},
      {"measurement": "MIC50", "setting": "[4]", "result": "< 50", "unit": "µg/mL"}
    ]},
    {"compound": "Cc1c(C#CC2CC2)c(=O)[nH]c(=O)n1[C@@H]1O[C@H](CO)[C@@H](O)[C@H]1O", "values": [
      {"measurement": "inhibition at 100 µg/mL", "setting": "[6]", "result": 90, "unit": "%"},
      {"measurement": "inhibition (INH)", "setting": "[2]", "result": 50, "unit": "%"},
      {"measurement": "inhibition at 10 µg/mL", "setting": "[7]", "result": 80, "unit": "%"},
      {"measurement": "MIC50", "setting": "[4]", "result": 2.1, "unit": "µg/mL"}
    ]},
    {"compound": "Cc1c(C#C[Si](C)(C)C)c(=O)[nH]c(=O)n1[C@@H]1O[C@H](CO)[C@@H](O)[C@H]1O", "values": [
      {"measurement": "inhibition at 100 µg/mL", "setting": "[6]", "result": 0, "unit": "%"}
    ]},
    {"compound": "CCCC#Cc1c(C)n([C@@H]2O[C@H](CO)[C@@H](O)[C@H]2O)c(=O)[nH]c1=O", "values": [
      {"measurement": "inhibition at 100 µg/mL", "setting": "[6]", "result": 90, "unit": "%"},
      {"measurement": "inhibition at 50 µg/mL", "setting": "[1]", "result": 60, "unit": "%"},
      {"measurement": "inhibition at 10 µg/mL", "setting": "[7]", "result": 0, "unit": "%"},
      {"measurement": "MIC50", "setting": "[4]", "result": "< 50", "unit": "µg/mL"}
    ]},
    {"compound": "Cc1c(C#CC2CCCCC2)c(=O)[nH]c(=O)n1[C@@H]1O[C@H](CO)[C@@H](O)[C@H]1O", "values": [
      {"measurement": "inhibition at 50 µg/mL", "setting": "[1]", "result": 100, "unit": "%"},
      {"measurement": "inhibition (INH)", "setting": "[2]", "result": 10, "unit": "%"},
      {"measurement": "inhibition at 25 µg/mL", "setting": "[3]", "result": 70, "unit": "%"},
      {"measurement": "MIC50", "setting": "[4]", "result": 14.7, "unit": "µg/mL"}
    ]},
    {"compound": "Cc1c(C#Cc2ccccc2)c(=O)[nH]c(=O)n1[C@@H]1O[C@H](CO)[C@@H](O)[C@H]1O", "values": [
      {"measurement": "inhibition at 100 µg/mL", "setting": "[6]", "result": 90, "unit": "%"},
      {"measurement": "inhibition at 50 µg/mL", "setting": "[1]", "result": 75, "unit": "%"},
      {"measurement": "inhibition (INH)", "setting": "[2]", "result": 50, "unit": "%"},
      {"measurement": "inhibition at 10 µg/mL", "setting": "[7]", "result": 75, "unit": "%"},
      {"measurement": "MIC50", "setting": "[4]", "result": 2.2, "unit": "µg/mL"}
    ]},
    {"compound": "CCC#Cc1c(C)n([C@@H]2O[C@H](CO)[C@@H](O)[C@H]2O)c(=O)[nH]c1=O", "values": [
      {"measurement": "inhibition at 100 µg/mL", "setting": "[6]", "result": 90, "unit": "%"},
      {"measurement": "inhibition at 50 µg/mL", "setting": "[1]", "result": 50, "unit": "%"},
      {"measurement": "inhibition at 10 µg/mL", "setting": "[7]", "result": 0, "unit": "%"},
      {"measurement": "MIC50", "setting": "[4]", "result": 50, "unit": "µg/mL"}
    ]},
    {"compound": "Cc1c(C#CCC(C)C)c(=O)[nH]c(=O)n1[C@@H]1O[C@H](CO)[C@@H](O)[C@H]1O", "values": [
      {"measurement": "inhibition at 50 µg/mL", "setting": "[1]", "result": 100, "unit": "%"},
      {"measurement": "inhibition (INH)", "setting": "[2]", "result": 10, "unit": "%"},
      {"measurement": "inhibition at 25 µg/mL", "setting": "[3]", "result": 60, "unit": "%"},
      {"measurement": "MIC50", "setting": "[4]", "result": 18.9, "unit": "µg/mL"}
    ]},
    {"compound": "N[C@@H]1CONC1=O", "note": "[CYCLOSERINE]", "values": [
      {"measurement": "inhibition at 10 µg/mL", "setting": "[7]", "result": 71, "unit": "%"},
      {"measurement": "inhibition at 5 µg/mL", "setting": "[8]", "result": 50, "unit": "%"},
      {"measurement": "MIC50", "setting": "[4]", "result": 5.1, "unit": "µg/mL"}
    ]},
    {"compound": "NNC(=O)c1ccncc1", "note": "[ISONIAZID]", "values": [
      {"measurement": "inhibition at 1 µg/mL", "setting": "[5]", "result": 100, "unit": "%"},
      {"measurement": "MIC50", "setting": "[4]", "result": 0.9, "unit": "µg/mL"}
    ]},
    {"compound": "CO[C@H]1/C=C/O[C@@]2(C)Oc3c(C)c(O)c4c(O)c(c(/C=N/N5CCN(C)CC5)c(O)c4c3C2=O)NC(=O)/C(C)=C\\C=C\\[C@H](C)[C@H](O)[C@@H](C)[C@@H](O)[C@@H](C)[C@H](OC(C)=O)[C@@H]1C", "note": "[RIFAMPIN]", "values": [
      {"measurement": "inhibition at 1 µg/mL", "setting": "[5]", "result": 100, "unit": "%"},
      {"measurement": "MIC50", "setting": "[4]", "result": 0.8, "unit": "µg/mL"}
    ]}
  ]
}
